Measured values: patent US9029110B2, “Method for producing functional microbially fermented tea extract containing polyphenol derivative” (Kabushiki Kaisha Riverson, priority 2009, dated 2015)

Tests used:
[1] = Test of the functions of decreasing visceral fat and increasing adiponectin (method not described); conditions: as a result of the test, no data shown
[2] = system: 3T3-L1 adipocytes; test: Adiponectin secretion promoting effect, Western blotting of culture supernatant; format: cell-based; conditions: for amount of adiponectin secreted (Mean, DMSO control = 100.00): differentiated 3T3-L1 adipocytes, 3 runs
Experimental: (§1) 3T3-L1 adipocytes can be allowed to grow and maintained in a 5% CO2 environment in high-glucose DMEM containing 50 U/ml penicillin, 50 μg/ml streptomycin, and 10% FCS. The 3T3-L1 cells were subcultured in a dish of 3.5 cm in diameter until confluent and then sufficiently differentiated into adipocytes by culture for another 2 days in the presence of insulin (10 μg/ml), dexamethasone (0.25 μM), and IBMX (3-isobutyl-1-methylxanthine) (0.5 mM). Teadenol A (10 μM) or DMSO (vehicle control) was added to the sufficiently differentiated 3T3-L1 adipocytes, and each culture supernatant was collected after 8, 24, 32, and 48 hours. The amount of adiponectin secreted was determined by Western blotting method.

[3] = system: PTP1B; test: PTP1B expression inhibitory effect, Western blotting; format: cell-based
Experimental: as §1
Teadenol A (10 μM) or DMSO (vehicle control) was added to the sufficiently differentiated 3T3-L1 adipocytes. After culture for 8, 24, 32, and 48 hours, the cells were collected, and the amount of PTP1B […] and the amount of α-tubulin were determined by Western blotting method.

[4] = stated as 'can be confirmed', no data shown

SMILES | function on adiponectin [1] | function on visceral fat [1] | amount of adiponectin secreted (Mean, DMSO control = 100.00) ([2]; 10 μM, 8 h) | amount of adiponectin secreted (Mean, DMSO control = 100.00) ([2]; 10 μM, 24 h) | amount of adiponectin secreted (Mean, DMSO control = 100.00) ([2]; 10 μM, 32 h) | amount of adiponectin secreted (Mean, DMSO control = 100.00) ([2]; 10 μM, 48 h) | adiponectin secretion promoting activity ([2]; statistically significant difference in the samples after 24 and 48 hours, 10 μM) | PTP1B expression inhibitory activity ([3]; statistically significant difference in the samples after 32 hours, 10 μM, 3T3-L1 adipocytes) | adiponectin secretion promoting effect [2, 4] | PTP1B expression inhibitory effect [3, 4]
C=C1C=C(C(=O)O)O[C@@H]2Cc3c(O)cc(O)cc3O[C@H]12 [Teadenol A, teadenol A] | increasing adiponectin | decreasing visceral fat | 166.00 | 214.67 | 153.33 | 147.67 | effective | effective | – | –
C=C1C=C(C(=O)O)O[C@@H]2Cc3c(O)cc(O)cc3O[C@@H]12 [Teadenol B, teadenol B] | – | – | – | – | – | – | – | – | effective | effective
